This note sets out measurements from ChEMBL document CHEMBL4024745, “Causes and Significance of Increased Compound Potency in Cellular or Physiological Contexts” (J Med Chem, 2018).

One data set addresses Bacterial 70S ribosome. Nature of the data set: Binding affinity to Escherichia coli A19 70S ribosome after 30 mins by scintillation counting method.
Data set [1] in a line: Binding affinity to Escherichia coli A19 50S ribosome after 30 mins by scintillation counting method.
A short description of data set [2]: Drug metabolism in human MCF7 cells assessed as polyglutamylation of compound at 2 uM after 24 hrs by liquid scintillation counting method. Type of data set: ADME, cell-based. Particulars: read-out: Drug metabolism.
Data set [3] is described as follows: Drug metabolism in human MDA231 cells assessed as polyglutamylation of compound at 2 uM after 24 hrs by liquid scintillation counting method. The class given is ADME, cell-based. Particulars: MDA231 (MDA-MB-231) cells, read-out: Drug metabolism.
Data set [4] is described as follows: Drug metabolism in human ZR-75B cells assessed as polyglutamylation of compound at 2 uM after 24 hrs by liquid scintillation counting method. Type of data set: ADME, cell-based. Particulars: read-out: Drug metabolism.
Data set [5] is described as follows: Binding affinity to Escherichia coli MRE600 50S ribosome after 80 hrs by equilibrium dialysis method.
The nature of data set [6]: Binding affinity to Escherichia coli MRE600 50S ribosome after 10 mins by radioligand binding assay.
Data set [7] in a line: Inhibition of coupled transcription-translation in Escherichia coli UC6782 […] using ortho-nitrophenyl-beta-galactoside as substrate after 30 mins by spectrophotometry.

In the case of `COC[C@H]1O[C@@H](O[C@@H]2OC[C@@H]3O[C@@]4(OC[C@@H](OC(=O)c5c(C)cc(O)cc5O)[C@@H]5OCO[C@H]54)O[C@H]3[C@H]2O)[C@@H](OC)[C@@H](O)[C@@H]1O[C@@H]1O[C@H](C)[C@H](OC)[C@H](O[C@@H]2O[C@H](C)[C@H]3O[C@]4(C[C@@H](O)[C@H](O[C@H]5C[C@@H](O[C@H]6C[C@](C)([N+](=O)[O-])[C@@H](OC)[C@H](C)O6)[C@H](OC(=O)c6c(C)c(Cl)c(O)c(Cl)c6OC)[C@@H](C)O5)[C@@H](C)O4)O[C@]3(C)[C@@H]2O)[C@H]1O` [EVERNIMICIN], the Kd came to 0.084 µM on Bacterial 70S ribosome and 0.16 µM in data set [1].

For the compound `CN(Cc1cnc2nc(N)nc(N)c2n1)c1ccc(C(=O)N[C@@H](CCC(=O)O)C(=O)O)cc1` [METHOTREXATE], the metabolised at 24 h, 2 µM in data set [2] was determined as 55.4%; in data set [3] it was 32%; in data set [4], 87.6%.

`CCC[C@@H]1C[C@@H](C(=O)N[C@@H]([C@H]2O[C@H](SC)[C@H](O)[C@@H](O)[C@H]2O)[C@@H](C)O)N([14CH3])C1` yielded a Kd in data set [5] of 34 µM.

For `CC(=O)NC[C@H]1CN(c2ccc(N3CCN(C(=O)CO)CC3)c(F)c2)C(=O)O1` [EPEREZOLID], the figures for the IC50 in data set [6] and in data set [7] were 20 µM and 1.8 µM, respectively.
